Experimental data: patent US7098169B2, “Herbicide-safener combination based on isoxazoline carboxylate safeners” (Bayer CropScience GmbH, priority 2001, dated 2006)

Key:
Format in all cases: in vivo
[1] = tested on: ZEAMA = Zea mays (maize); assay: Post-emergence treatment, safening by (Ib), visual injury score in maize (Table 1)
Method: 3.2 Effect of the Herbicide and Effect of the Safener when Applied Pre-Emergence Seeds or rhizome pieces of mono- and dicotyledenous harmful plants and of crop plants are placed in sandy loam soil in plastic pots, covered with soil and cultivated in a greenhouse under good growth conditions. Alternatively, harmful plants encountered in paddy rice cultivation are cultivated in pots where the water level is up to 2 cm above the soil surface. Three weeks after sowing, the test plants are treated at the three-leaf stage. […] In a series of trials the ability of herbicides to be […] by safener (Ib) was evaluated.

[2] = tested on: TRZAS, Triticum aestivum (wheat); assay: Pre-emergence application of herbicide-safener combination, visual injury score in wheat (Table 2); details: application rate 300 g a.i./ha
Method: (§1) The damage to the plants is assessed visually on a scale of 0–100% in comparison with control plants: • 0%=no noticeable effect in comparison with the untreated plant • 100%=the treated plant dies off. 3.2 Effect of the Herbicide and Effect of the Safener when Applied Pre-Emergence
(§2) Seeds or rhizome pieces of mono- and dicotyledonous harmful plants and of crop plants are placed in sandy loam soil in plastic pots of a diameter of 9 cm and covered with soil. Alternatively, harmful plants encountered in paddy rice cultivation are cultivated in water-saturated soil, where the amount of water poured into the pots is such that the water level is at the soil surface, or some millimeters above the soil surface. The herbicide/safener active compound combinations according to the invention, formulated in the form of emulsion concentrates, and, in parallel tests, the correspondingly formulated individual active compounds are then applied as emulsions to the surface of the soil cover in various dosages using an amount of water of 300 l/ha (converted), or, in the case of rice, are poured into the irrigation water. After the treatment, the pots are placed in a greenhouse and kept under good growth conditions for the weeds. […]

[3] = tested on: HORVS = Hordeum vulgare (barley); assay: Pre-emergence application of herbicide-safener combination, visual injury score in barley (Table 3); details: application rate 300 g a.i./ha (herbicide alone)
Method: as §1, §2

`CCOC(=O)C(Cl)Cc1cc(-n2nc(C)n(C(F)F)c2=O)c(F)cc1Cl` (racemic) [(B4-1), ethyl (RS)-2-chloro-3-[2-chloro-5-(4-difluoromethyl-4,5-dihydro-3-methyl-5-oxo-1H-1,2,4-triazol-1-yl)-4-fluorophenyl]propionate] was tested, and the “% injury to ZEAMA” value ([1]; application rate 36 g a.i./ha) was 11%.
For `COc1ncc(F)c2nc(S(=O)(=O)Nc3c(F)cccc3F)nn12` [(B1-1), N-(2,6difluorophenyl)-8-fluoro-5-methoxy-1,2,4-triazolo[1,5-c]pyrimidin-2-sulfonamide], the “% injury to ZEAMA” value ([1]; application rate 10 g a.i./ha) was 18%.
For `CCOc1nc(F)cc2nc(S(=O)(=O)Nc3c(Cl)cccc3C(=O)OC)nn12` [(B1-2), methyl 3-chloro-(5-ethoxy-7-fluoro[1,2,4]triazole-[1,5-c]pyrimidin-2-ylsulfonamido)-benzoate], the “% injury to ZEAMA” value ([1]; application rate 30 g a.i./ha) was 32%.
With `O=C(O)COc1nc(Cl)c(Cl)cc1Cl` [(B2-3), 3,5,6-trichloro-2-pyridyloxyacetic acid] the “% injury to ZEAMA” value ([1]; application rate 420 g a.i./ha) was 22%.
In the case of `Nc1c(Cl)c(F)nc(OCC(=O)O)c1Cl` [(B2-4), 4-amino-3,5-dichloro-6-fluoro-2-pyridyloxyacetic acid], the “% injury to ZEAMA” value ([1]; application rate 160 g a.i./ha) is reported as 9%.
For `CSc1nnc(C(C)(C)C)c(=O)n1N` [(B3-1), 4-amino-6-tert-butyl-4,5-dihydro3-methylthio-1,2,4-triazin-5-one], the “% injury to ZEAMA” value ([1]; application rate 560 g a.i./ha) was 23%.
With `CCc1cccc(C)c1N(C(=O)CCl)[C@@H](C)COC` [(B5-1)] the “% injury to TRZAS” value [2] was 70% and the “% injury to HORVS” value [3] was 15%.
